Consider one molecule from patent US12527849B2, “Apparatus for determining administration form of a composition of an engineered virus-based nanoparticle for a treatment of an autoimmune condition” (Diamante Srl, priority 2021, dated 2026).

Molecules are shown by their SMILES.

In one assay the test system is TGF-β1. As to the kind of experiment: Cytokine ELISA in CIA mice, day 60: TGF-β1. It is filed as in vivo. The settings on record: serum pooled from five CIA mice. An excerpt:
(§1) With continued reference to FIG. 1, in some embodiments, administration 116 may be done to an animal. As a non-limiting example, the animal may include a mouse, a fish, a rabbit, human, and the like. As a non-limiting example, administration 116 of composition of the engineered virus-based nanoparticle for a treatment of an autoimmune condition may be done to dilute, brown, and non-agouti (DBA) mice based on their susceptibility to collagen-induced arthritis (CIA). Female DBA/1 mice 6 to 8 weeks of age may be maintained under specific pathogen-free conditions. CIA may be induced by the intradermal tail base injection of 100 μg of chicken type II collagen (Sigma-Aldrich) as previously described. Five mice per group may be immunized on days 0 and 21 to induce arthritis. The onset of disease may be confirmed on the day that swelling or erythema may be observed in any paw, typically 4 to 10 days after the second immunization. Each experimental group may be treated seven times, 5 days apart, starting from day 28 after the first immunization, with intraperitoneal injections of saline (200 μI per mouse), TBSV·pLIp1, TBSV·pFADK2, pLIp1+IFA, and pFADK2+IFA (all 50 μg per mouse in 200 μl) or dexamethasone (5 μg per mouse in 200 μl). […] CIA may be assessed using a macroscopic score system based on the visual identification of arthritic limbs.

In the next assay the test system is IFN-γ. Kind of assay: Cytokine ELISA in CIA mice, day 60: IFN-γ. The format is in vivo.
Excerpt: as §1, with “immunization.” for “immunization. Each experimental group may be treated seven times, 5 days apart, starting from day 28 after the first immunization, with intraperitoneal injections of saline (200 μI per mouse), TBSV·pLIp1, TBSV·pFADK2, pLIp1+IFA, and pFADK2+IFA (all 50 μg per mouse in 200 μl) or dexamethasone (5 μg per mouse in 200 μl).”, “limbs. The clinical severity of arthritis may be evaluated as follows: Each mouse may be inspected every 2 to 3 days for three different parameters: (i) swelling of the hind ankle and foot, measured with calipers; (ii) erythema of each leg; and (iii) swelling of the fingers. The RA index for each mouse was expressed as the mean of the three scores from the individual parameters. At the end of the experiment (60 days), we determined the proportion of CD25+Foxp3+ cells in the lymph nodes and measured cytokine titers in the lymph nodes, joints, and serum.” for “limbs.”
With continued reference to FIG. 1, in some embodiments, processor 104 may determine critical administration 124 as a function of a cytokine profile and a proportion of CD25^+ Foxp3^+ cells. […] In some embodiments, to quantify cytokines in DBA mice, joint tissues may be pulverized and resuspended in 1 ml of lysis medium per 100-mg joint weight for 60 min at 37′C, followed by centrifugation to remove debris. […]
On the technique in general: An ELISA detects its analyte on a solid surface through an enzyme-linked reagent.

The molecule `C[C@@H]1C[C@H]2[C@@H]3CCC4=CC(=O)C=C[C@]4(C)[C@@]3(F)[C@@H](O)C[C@]2(C)[C@@]1(O)C(=O)CO` [Dexamethasone, dexamethasone] gave a TGF-β1 in the assay with TGF-β1 of 10385.0 pg/mL. Besides, in the assay with IFN-γ (joint supernatant, CIA mice, day 60, mean n=3), the “IFN-γ J” value was found to be 187.23 pg/mL. Moreover, the “IFN-γ LN” value in the assay on IFN-γ (lymph node supernatant, CIA mice, day 60, mean n=3) came out at 210.86 pg/mL. In addition, the “IFN-γ S” value in the assay on IFN-γ (serum pooled from five CIA mice, day 60) is 75.6 pg/mL.
